Target: T1, IKKβ (Homo sapiens, UniProt O14920)
T1 sequence (O14920 1-756): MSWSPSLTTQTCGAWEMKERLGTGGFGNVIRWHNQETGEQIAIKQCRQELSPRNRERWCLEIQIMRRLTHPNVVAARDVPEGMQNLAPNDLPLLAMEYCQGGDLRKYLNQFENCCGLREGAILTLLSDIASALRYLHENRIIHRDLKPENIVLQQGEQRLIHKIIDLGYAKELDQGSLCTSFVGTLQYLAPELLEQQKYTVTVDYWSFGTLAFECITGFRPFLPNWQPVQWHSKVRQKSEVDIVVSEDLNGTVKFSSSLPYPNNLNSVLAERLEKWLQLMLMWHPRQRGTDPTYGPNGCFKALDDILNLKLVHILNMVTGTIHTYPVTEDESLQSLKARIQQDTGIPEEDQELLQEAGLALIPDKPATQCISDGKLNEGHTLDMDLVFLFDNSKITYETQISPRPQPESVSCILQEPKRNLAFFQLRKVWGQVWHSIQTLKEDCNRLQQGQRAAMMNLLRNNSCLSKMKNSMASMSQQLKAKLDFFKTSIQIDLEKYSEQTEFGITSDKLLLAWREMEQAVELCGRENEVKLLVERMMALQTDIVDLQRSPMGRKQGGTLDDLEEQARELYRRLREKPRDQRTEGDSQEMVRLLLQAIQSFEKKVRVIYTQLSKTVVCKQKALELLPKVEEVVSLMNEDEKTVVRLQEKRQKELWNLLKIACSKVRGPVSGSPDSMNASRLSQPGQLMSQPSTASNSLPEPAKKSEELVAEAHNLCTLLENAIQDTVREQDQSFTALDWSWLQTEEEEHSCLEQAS
Assay type: biochemical
Conditions: read-out: % inhibition at 100 μM

CCCCCC(=O)/C=C/C=C\C/C=C\C/C=C\CCCC(=O)O [15-oxoETE]
inhibition at 100 µM: > 50%

From paper PMC4414684 (Chemico-biological interactions, 2014)
